Experimental data as given in ChEMBL document CHEMBL5532661, “Discovery of a Novel Glucagon-like Peptide-1 (GLP-1) Analogue from Bullfrog and Investigation of Its Potential for Designing GLP-1-Based Multiagonists” (J Med Chem, 2024).
Numbered stars: 1 amine (or outer) side, 2 acyl side, 3 side chain; on linkers, the order of the positions; unused ones are H or OH. Side chains are listed from the residue outwards. Peptide text beside a SMILES is read from it. * marks the point of attachment. C18 diacid = O=C(O)CCCCCCCCCCCCCCCCC(=O)*; γGlu = O=C(O)[C@H](CCC(=O)[*:2])N[*:1]; Palmitoyl = CCCCCCCCCCCCCCCC(=O)*; AEEA = NCCOCCOCC(=O)O

What was measured:
Format in all cases: functional, cell-based
[1] = molecular target: T1, Glucagon-like peptide 1 receptor (Homo sapiens, UniProt P43220); assay: Agonist activity at human GLP-1 receptor expressed in HEK293 cells assessed as cAMP level measured after 60 mins by HTRF based assay
[2] = molecular target: T1, Glucagon-like peptide 1 receptor; assay: Agonist activity at human GLP-1 receptor expressed in HEK293 cells assessed as cAMP level by measuring relative percent (GLP-1 EC50/compound EC50) measured after 60 mins by HTRF based assay relative to GLP-1; details: filed as agonist
Glucagon receptor [3] = molecular target: T2, Glucagon receptor (Homo sapiens, UniProt P47871); assay: Agonist activity at human GCGR expressed in HEK293 cells assessed as cAMP level measured after 60 mins by HTRF based assay
Glucagon receptor [4] = molecular target: T2, Glucagon receptor; assay: Agonist activity at human GCGR expressed in HEK293 cells assessed as cAMP level by measuring relative percent (glucagon EC50/compound EC50) measured after 60 mins by HTRF based assay relative to glucagon

T1 sequence (P43220 whole entry): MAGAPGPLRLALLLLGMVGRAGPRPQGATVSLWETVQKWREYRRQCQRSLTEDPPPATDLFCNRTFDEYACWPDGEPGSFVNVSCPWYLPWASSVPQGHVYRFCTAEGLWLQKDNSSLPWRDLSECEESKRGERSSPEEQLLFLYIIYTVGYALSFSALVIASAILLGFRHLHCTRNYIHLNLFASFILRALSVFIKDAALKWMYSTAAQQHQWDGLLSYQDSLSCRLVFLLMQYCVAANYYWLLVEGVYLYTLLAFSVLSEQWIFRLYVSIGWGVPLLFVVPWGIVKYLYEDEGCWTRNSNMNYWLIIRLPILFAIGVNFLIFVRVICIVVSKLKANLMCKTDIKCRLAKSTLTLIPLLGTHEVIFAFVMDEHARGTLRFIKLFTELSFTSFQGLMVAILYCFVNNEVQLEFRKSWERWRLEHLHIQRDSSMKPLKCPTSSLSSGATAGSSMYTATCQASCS
T2 sequence (P47871 whole entry): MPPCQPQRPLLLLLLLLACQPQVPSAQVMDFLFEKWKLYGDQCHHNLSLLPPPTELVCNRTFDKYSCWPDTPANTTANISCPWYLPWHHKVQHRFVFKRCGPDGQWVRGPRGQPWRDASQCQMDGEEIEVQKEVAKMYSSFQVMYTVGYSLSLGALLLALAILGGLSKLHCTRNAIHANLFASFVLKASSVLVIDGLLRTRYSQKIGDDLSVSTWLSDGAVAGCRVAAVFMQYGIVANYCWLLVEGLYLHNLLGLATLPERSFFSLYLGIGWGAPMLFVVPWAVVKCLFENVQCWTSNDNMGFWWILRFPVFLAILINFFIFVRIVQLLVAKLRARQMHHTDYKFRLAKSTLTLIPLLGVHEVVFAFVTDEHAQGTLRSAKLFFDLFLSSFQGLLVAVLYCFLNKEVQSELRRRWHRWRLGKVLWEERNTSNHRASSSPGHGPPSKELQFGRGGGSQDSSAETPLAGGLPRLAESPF

EC50 [1] [nM]	Compound	also measured
0.19	H-HADGIYTSDVASLTDYLKSKRFVESLSNYNRKQNDRRM-NH2	–
0.23	H-HADGTFTNDMTSYLDAKAARDFVSWLARSDKS-NH2	–
0.12	H-HADGTFTSDMSAYLEEKAAKEFVDWLIKGRPK-NH2	–
0.56	H-HADGTFTSDMSSALEEKAAKEFVDWLIKGRPK-NH2	–
0.61	H-HADGTFTSDMSSYLAEKAAKEFVDWLIKGRPK-NH2	–
0.11	H-HADGTFTSDMSSYLEEKAAKAFVDWLIKGRPK-NH2	–
0.66	H-HADGTFTSDMSSYLEEKAAKEAVDWLIKGRPK-NH2	–
0.094	H-HADGTFTSDMSSYLEEKAAKEFADWLIKGRPK-NH2	–
0.096	H-HADGTFTSDMSSYLEEKAAKEFVAWLIKGRPK-NH2	–
0.092	H-HADGTFTSDMSSYLEEKAAKEFVDALIKGRPK-NH2	–
0.53	H-HADGTFTSDMSSYLEEKAAKEFVDWAIKGRPK-NH2	–
0.12	H-HADGTFTSDMSSYLEEKAAKEFVDWLIAGRPK-NH2	–
0.63	H-HADGTFTSDMSSYLEEKAAKEFVDWLIKARPK-NH2	–
0.097	H-HADGTFTSDMSSYLEEKAAKEFVDWLIKGAPK-NH2	–
0.099	H-HADGTFTSDMSSYLEEKAAKEFVDWLIKGRAK-NH2	–
0.018	H-HADGTFTSDMSSYLEEKAAKEFVDWLIKGRPA-NH2	–
0.051	H-HADGTFTSDMSSYLEEKAAKEFVDWLIKGRPK-NH2	–
0.72	H-HADGTFTSDMSSYLEEKRAKEFVDWLIKGRPK-NH2	–
0.35	H-HADGTYTSDVSSYLQDQAAKKFVTWLKQGQDRRE-NH2	–
0.31	H-HAEGTYTDDVSTYLQDQAAKDFVSWLKSGRA-NH2	–

Compound	EC50 [1] [nM]	also measured
CSCC[C@H](NC(=O)[C@H](CC(=O)O)NC(=O)[C@H](CO)NC(=O)[C@@H](NC(=O)[C@H](Cc1ccccc1)NC(=O)[C@@H](NC(=O)CNC(=O)[C@H](CCC(N)=O)NC(=O)[C@H](CO)NC(=O)[C@@H](N)Cc1c[nH]cn1)[C@@H](C)O)[C@@H](C)O)C(=O)N[C@@H](CO)C(=O)N[C@@H](CCCCNC(=O)COCCOCCNC(=O)COCCOCCNC(=O)CC[C@H](NC(=O)CCCCCCCCCCCCCCCCC(=O)O)C(=O)O)C(=O)N[C@@H](Cc1ccc(O)cc1)C(=O)N[C@@H](CC(C)C)C(=O)N[C@@H](CC(=O)O)C(=O)N[C@@H](CO)C(=O)N[C@@H](CCCNC(=N)N)C(=O)N[C@@H](CCCNC(=N)N)C(=O)N[C@@H](C)C(=O)N[C@@H](CCC(N)=O)C(=O)N[C@@H](CC(=O)O)C(=O)N[C@@H](Cc1ccccc1)C(=O)N[C@H](C(=O)N[C@@H](CC(=O)O)C(=O)N[C@@H](Cc1c[nH]c2ccccc12)C(=O)N[C@@H](CC(C)C)C(=O)N[C@@H](CCCCN)C(=O)N[C@@H](CC(N)=O)C(=O)NCC(=O)NCC(=O)N1CCC[C@H]1C(=O)N[C@@H](CO)C(=O)N[C@@H](CO)C(=O)NCC(=O)N[C@@H](C)C(=O)N1CCC[C@H]1C(=O)N1CCC[C@H]1C(=O)N1CCC[C@H]1C(=O)N[C@@H](CO)C(N)=O)C(C)C (H-HSQGTFTSDMSK([AEEA-AEEA-γGlu-C18 diacid])YLDSRRAQDFVDWLKNGGPSSGAPPPS-NH2)	0.052	Activity [2]: 102%; EC50 (Glucagon receptor [3]): 1.4 nM; Activity (Glucagon receptor [4]): 7%
CCCCCCCCCCCCCCCC(=O)N[C@@H](CCC(=O)NCCCC[C@H](NC(=O)[C@H](CO)NC(=O)[C@H](CCSC)NC(=O)[C@H](CC(=O)O)NC(=O)[C@H](CO)NC(=O)[C@@H](NC(=O)[C@H](Cc1ccccc1)NC(=O)[C@@H](NC(=O)CNC(=O)[C@H](CCC(N)=O)NC(=O)[C@H](CO)NC(=O)[C@@H](N)Cc1c[nH]cn1)[C@@H](C)O)[C@@H](C)O)C(=O)N[C@@H](Cc1ccc(O)cc1)C(=O)N[C@@H](CC(C)C)C(=O)N[C@@H](CC(=O)O)C(=O)N[C@@H](CO)C(=O)N[C@@H](CCCNC(=N)N)C(=O)N[C@@H](CCCNC(=N)N)C(=O)N[C@@H](C)C(=O)N[C@@H](CCC(N)=O)C(=O)N[C@@H](CC(=O)O)C(=O)N[C@@H](Cc1ccccc1)C(=O)N[C@H](C(=O)N[C@@H](CC(=O)O)C(=O)N[C@@H](Cc1c[nH]c2ccccc12)C(=O)N[C@@H](CC(C)C)C(=O)N[C@@H](CCCCN)C(=O)N[C@@H](CC(N)=O)C(=O)NCC(=O)NCC(=O)N1CCC[C@H]1C(=O)N[C@@H](CO)C(=O)N[C@@H](CO)C(=O)NCC(=O)N[C@@H](C)C(=O)N1CCC[C@H]1C(=O)N1CCC[C@H]1C(=O)N1CCC[C@H]1C(=O)N[C@@H](CO)C(N)=O)C(C)C)C(=O)O (H-HSQGTFTSDMSK([γGlu-Palmitoyl])YLDSRRAQDFVDWLKNGGPSSGAPPPS-NH2)	0.046	Activity [2]: 115%; EC50 (Glucagon receptor [3]): 0.19 nM; Activity (Glucagon receptor [4]; filed as agonist): 48%
CSCC[C@H](NC(=O)[C@H](CC(=O)O)NC(=O)[C@H](CO)NC(=O)[C@@H](NC(=O)[C@H](Cc1ccccc1)NC(=O)[C@@H](NC(=O)CNC(=O)[C@H](CCC(N)=O)NC(=O)[C@H](CO)NC(=O)[C@@H](N)Cc1c[nH]cn1)[C@@H](C)O)[C@@H](C)O)C(=O)N[C@@H](CO)C(=O)N[C@@H](CCCCN)C(=O)N[C@@H](Cc1ccc(O)cc1)C(=O)N[C@@H](CCCCNC(=O)COCCOCCNC(=O)COCCOCCNC(=O)CC[C@H](NC(=O)CCCCCCCCCCCCCCCCC(=O)O)C(=O)O)C(=O)N[C@@H](CC(=O)O)C(=O)N[C@@H](CO)C(=O)N[C@@H](CCCNC(=N)N)C(=O)N[C@@H](CCCNC(=N)N)C(=O)N[C@@H](C)C(=O)N[C@@H](CCC(N)=O)C(=O)N[C@@H](CC(=O)O)C(=O)N[C@@H](Cc1ccccc1)C(=O)N[C@H](C(=O)N[C@@H](CC(=O)O)C(=O)N[C@@H](Cc1c[nH]c2ccccc12)C(=O)N[C@@H](CC(C)C)C(=O)N[C@@H](CCCCN)C(=O)N[C@@H](CC(N)=O)C(=O)NCC(=O)NCC(=O)N1CCC[C@H]1C(=O)N[C@@H](CO)C(=O)N[C@@H](CO)C(=O)NCC(=O)N[C@@H](C)C(=O)N1CCC[C@H]1C(=O)N1CCC[C@H]1C(=O)N1CCC[C@H]1C(=O)N[C@@H](CO)C(N)=O)C(C)C (H-HSQGTFTSDMSKYK([AEEA-AEEA-γGlu-C18 diacid])DSRRAQDFVDWLKNGGPSSGAPPPS-NH2)	0.049	Activity [2]: 108%; EC50 (Glucagon receptor [3]): 1.2 nM; Activity (Glucagon receptor [4]): 8%
CSCC[C@H](NC(=O)[C@H](CC(=O)O)NC(=O)[C@H](CO)NC(=O)[C@@H](NC(=O)[C@H](Cc1ccccc1)NC(=O)[C@@H](NC(=O)CNC(=O)[C@H](CCC(N)=O)NC(=O)[C@H](CO)NC(=O)[C@@H](N)Cc1c[nH]cn1)[C@@H](C)O)[C@@H](C)O)C(=O)N[C@@H](CO)C(=O)N[C@@H](CCCCN)C(=O)N[C@@H](Cc1ccc(O)cc1)C(=O)N[C@@H](CC(C)C)C(=O)N[C@@H](CC(=O)O)C(=O)N[C@@H](CO)C(=O)N[C@@H](CCCNC(=N)N)C(=O)N[C@@H](CCCNC(=N)N)C(=O)N[C@@H](C)C(=O)N[C@@H](CCC(N)=O)C(=O)N[C@@H](CC(=O)O)C(=O)N[C@@H](Cc1ccccc1)C(=O)N[C@H](C(=O)N[C@@H](CC(=O)O)C(=O)N[C@@H](Cc1c[nH]c2ccccc12)C(=O)N[C@@H](CC(C)C)C(=O)N[C@@H](CCCCN)C(=O)N[C@@H](CC(N)=O)C(=O)NCC(=O)NCC(=O)N1CCC[C@H]1C(=O)N[C@@H](CO)C(=O)N[C@@H](CO)C(=O)NCC(=O)N[C@@H](C)C(=O)N1CCC[C@H]1C(=O)N1CCC[C@H]1C(=O)N1CCC[C@H]1C(=O)N[C@@H](CO)C(=O)N[C@@H](CCCCNC(=O)COCCOCCNC(=O)COCCOCCNC(=O)CC[C@H](NC(=O)CCCCCCCCCCCCCCCCC(=O)O)C(=O)O)C(N)=O)C(C)C (H-HSQGTFTSDMSKYLDSRRAQDFVDWLKNGGPSSGAPPPSK([AEEA-AEEA-γGlu-C18 diacid])-NH2)	0.034	Activity [2]: 156%; EC50 (Glucagon receptor [3]): 3.1 nM; Activity (Glucagon receptor [4]): 3%
